For one test, the target named is T1, human Nav1.8 (Homo sapiens, UniProt Q9Y5Y9).
T1 construct: expressed in transfected cells; host or cells: HEK293 (HEK293-Nav1.8)
T1 sequence (Q9Y5Y9 whole entry): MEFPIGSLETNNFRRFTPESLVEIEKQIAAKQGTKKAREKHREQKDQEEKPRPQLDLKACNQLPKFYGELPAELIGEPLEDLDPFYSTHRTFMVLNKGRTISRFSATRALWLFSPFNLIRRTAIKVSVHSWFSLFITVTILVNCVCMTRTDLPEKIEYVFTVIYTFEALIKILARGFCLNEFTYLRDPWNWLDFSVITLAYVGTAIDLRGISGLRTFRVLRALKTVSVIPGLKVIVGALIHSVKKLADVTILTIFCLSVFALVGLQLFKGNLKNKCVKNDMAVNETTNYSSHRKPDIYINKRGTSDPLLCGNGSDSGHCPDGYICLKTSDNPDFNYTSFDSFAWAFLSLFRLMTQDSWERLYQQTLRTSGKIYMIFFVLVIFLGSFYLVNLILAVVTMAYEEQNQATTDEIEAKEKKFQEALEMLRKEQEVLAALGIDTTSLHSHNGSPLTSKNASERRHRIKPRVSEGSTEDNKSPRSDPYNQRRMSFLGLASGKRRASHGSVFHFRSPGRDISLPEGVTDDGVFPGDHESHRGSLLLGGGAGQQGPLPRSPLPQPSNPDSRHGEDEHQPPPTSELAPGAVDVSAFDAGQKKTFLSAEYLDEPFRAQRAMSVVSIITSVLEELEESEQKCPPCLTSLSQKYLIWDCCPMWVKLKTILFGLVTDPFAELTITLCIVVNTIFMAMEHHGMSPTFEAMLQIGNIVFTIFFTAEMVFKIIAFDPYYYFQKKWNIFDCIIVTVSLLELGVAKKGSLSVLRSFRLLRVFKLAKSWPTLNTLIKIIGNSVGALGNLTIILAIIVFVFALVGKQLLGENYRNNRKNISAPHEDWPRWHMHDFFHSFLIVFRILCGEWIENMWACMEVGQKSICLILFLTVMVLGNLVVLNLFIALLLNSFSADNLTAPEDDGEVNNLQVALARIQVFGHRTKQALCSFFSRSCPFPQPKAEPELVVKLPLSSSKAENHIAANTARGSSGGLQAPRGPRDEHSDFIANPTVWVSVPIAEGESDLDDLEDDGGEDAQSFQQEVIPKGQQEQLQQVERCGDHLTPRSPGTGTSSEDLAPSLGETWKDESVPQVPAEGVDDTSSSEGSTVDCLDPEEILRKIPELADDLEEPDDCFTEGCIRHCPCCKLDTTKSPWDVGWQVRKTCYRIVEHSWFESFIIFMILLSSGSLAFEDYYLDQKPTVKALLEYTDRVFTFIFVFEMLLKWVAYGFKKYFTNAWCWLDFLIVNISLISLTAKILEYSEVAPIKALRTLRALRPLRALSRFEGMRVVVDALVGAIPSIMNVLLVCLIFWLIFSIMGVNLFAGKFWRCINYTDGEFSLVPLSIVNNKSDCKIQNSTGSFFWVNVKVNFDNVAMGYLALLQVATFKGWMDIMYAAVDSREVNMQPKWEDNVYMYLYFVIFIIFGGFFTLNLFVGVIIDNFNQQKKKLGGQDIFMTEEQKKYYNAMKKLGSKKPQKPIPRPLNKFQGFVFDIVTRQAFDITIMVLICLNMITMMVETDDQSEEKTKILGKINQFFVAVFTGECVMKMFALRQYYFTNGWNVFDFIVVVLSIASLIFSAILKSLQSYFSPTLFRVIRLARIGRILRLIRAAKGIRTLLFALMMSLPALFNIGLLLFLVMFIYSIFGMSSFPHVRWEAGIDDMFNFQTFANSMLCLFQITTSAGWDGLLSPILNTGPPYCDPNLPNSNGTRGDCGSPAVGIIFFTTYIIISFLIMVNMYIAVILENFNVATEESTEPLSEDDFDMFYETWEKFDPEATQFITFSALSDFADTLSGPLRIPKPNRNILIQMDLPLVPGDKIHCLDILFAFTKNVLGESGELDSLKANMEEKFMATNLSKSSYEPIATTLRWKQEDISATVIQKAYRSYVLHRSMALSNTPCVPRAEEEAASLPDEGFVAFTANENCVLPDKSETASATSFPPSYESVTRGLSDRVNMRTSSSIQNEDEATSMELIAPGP
T1 sequence (Q07699 19-218 partner): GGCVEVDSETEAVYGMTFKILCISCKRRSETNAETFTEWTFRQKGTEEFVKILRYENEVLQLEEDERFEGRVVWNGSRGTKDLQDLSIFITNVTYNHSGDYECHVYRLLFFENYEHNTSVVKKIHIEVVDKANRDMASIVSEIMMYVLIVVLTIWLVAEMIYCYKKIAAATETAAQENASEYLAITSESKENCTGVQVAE
Kind of test: Nav1.8 sodium channels assay, QPatch 48 HTX electrophysiology in HEK293-Nav1.8 cells. The test is classed as cell-based. The note with it: Table 1; HEK293-Nav1.8, QPatch 48 HTX, half inactivation state voltage protocol (V1/2); single run or average of two or more runs; read-out: Nav1.8 pIC50 (converted). In short, it runs like this: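 IC50 came from 6-8 point curves of P2 current amplitude, normalized to baseline and a positive reference, and corrected for run-down using vehicle-only wells. Automated patch clamp used HEK293-Nav1.8 (with Navβ1 and TREK1) at pH 7.4 outside and CsF-based solution inside. An 8 s inactivating step at −46 mV preceded the 0 mV test pulse, repeated at 0.07 Hz.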
A general note: The patch-clamp technique gives a direct electrical read-out from membranes.
Turning to `CCc1cc(F)ccc1N1CN(c2ccc(=O)[nH]c2)C(=O)c2ccc(C(F)(F)F)cc21` [drawing 280, 1-(2-ethyl-4-fluorophenyl)-3-(6-oxo-1,6-dihydropyridin-3-yl)-7-(trifluoromethyl)-2,3-dihydroquinazolin-4(1H)-one], the IC50 is 251 nM.
On the same count and under the same terms, with `COc1cc(F)ccc1N1CN(c2ccc(=O)[nH]c2)C(=O)c2c1cccc2C(F)(F)F` [drawing 281, 1-(4-fluoro-2-methoxyphenyl)-3-(6-oxo-1,6-dihydropyridin-3-yl)-5-(trifluoromethyl)-2,3-dihydroquinazolin-4(1H)-one] the figure was 6310 nM.
The same measure, in the same setting: next, `Cc1cc(F)ccc1N1CN(c2ccc(=O)[nH]c2)C(=O)c2ccc(C(F)(F)F)c(Cl)c21` [drawing 282, 8-chloro-1-(4-fluoro-2-methylphenyl)-3-(6-oxo-1,6-dihydropyridin-3-yl)-7-(trifluoromethyl)-2,3-dihydroquinazolin-4(1H)-one]: 6310 nM.
Still for that read-out and setting: with `Cc1cc(Br)ccc1N1CN(c2ccc(=O)[nH]c2)C(=O)c2ccc(C(F)(F)F)cc21` [drawing 283, 1-(4-bromo-2-methylphenyl)-3-(6-oxo-1,6-dihydropyridin-3-yl)-7-(trifluoromethyl)-2,3-dihydroquinazolin-4(1H)-one] the figure was 316 nM; with `Cc1cc(F)ccc1N1CN(c2ccc(=O)[nH]c2)C(=O)c2ccc(C(F)(F)F)c(C)c21` [drawing 284, 1-(4-fluoro-2-methylphenyl)-8-methyl-3-(6-oxo-1,6-dihydropyridin-3-yl)-7-(trifluoromethyl)-2,3-dihydroquinazolin-4(1H)-one], 6310 nM; with `Cc1[nH]c(=O)ccc1N1CN(c2ccc(F)cc2)c2cc(C(F)(F)F)ccc2C1=O` [drawing 285, 1-(4-fluorophenyl)-3-(2-methyl-6-oxo-1,6-dihydropyridin-3-yl)-7-(trifluoromethyl)-2,3-dihydroquinazolin-4(1H)-one], 126 nM.
For `Cc1cc(F)ccc1N1CN(c2ccc(=O)[nH]c2C)C(=O)c2cc(C(F)(F)F)ccc21` [drawing 286, 1-(4-fluoro-2-methylphenyl)-3-(2-methyl-6-oxo-1,6-dihydropyridin-3-yl)-6-(trifluoromethyl)-2,3-dihydroquinazolin-4(1H)-one], the IC50 is 15.8 nM.
For `Cc1cc(C#N)ccc1N1CN(c2ccc(=O)[nH]c2C)C(=O)c2ccc(C(F)(F)F)cc21` [drawing 287, 3-methyl-4-(3-(2-methyl-6-oxo-1,6-dihydropyridin-3-yl)-4-oxo-7-(trifluoromethyl)-3,4-dihydroquinazolin-1(2H)-yl)benzonitrile], the IC50 was 63.1 nM.
On the same count and under the same terms, with `Cc1cc(F)ccc1N1CN(c2ccc(=O)[nH]c2C)C(=O)c2ccc(C(F)(F)F)nc21` [drawing 288, 1-(4-fluoro-2-methylphenyl)-3-(2-methyl-6-oxo-1,6-dihydropyridin-3-yl)-7-(trifluoromethyl)-2,3-dihydropyrido[2,3-d]pyrimidin-4(1H)-one] the figure was 251 nM.
Still for that read-out and setting: next, `Cc1ncccc1N1CN(c2ccc(=O)[nH]c2C)C(=O)c2ccc(C(F)(F)F)cc21` [drawing 289, 3-(2-methyl-6-oxo-1,6-dihydropyridin-3-yl)-1-(2-methylpyridin-3-yl)-7-(trifluoromethyl)-2,3-dihydroquinazolin-4(1H)-one]: 2510 nM.
On the same count and under the same terms, next, `Cc1[nH]c(=O)ccc1N1CN(c2ccc(F)cc2C(C)C)c2cc(C(F)(F)F)ccc2C1=O` [drawing 290, 1-(4-fluoro-2-isopropylphenyl)-3-(2-methyl-6-oxo-1,6-dihydropyridin-3-yl)-7-(trifluoromethyl)-2,3-dihydroquinazolin-4(1H)-one]: 6.31 nM.
With `CCc1[nH]c(=O)ccc1N1CN(c2ccc(F)cc2C)c2cc(C(F)(F)F)ccc2C1=O` [drawing 291, 3-(2-ethyl-6-oxo-1,6-dihydropyridin-3-yl)-1-(4-fluoro-2-methylphenyl)-7-(trifluoromethyl)-2,3-dihydroquinazolin-4(1H)-one], the IC50 is 20 nM.
Take `Cc1cc(F)ccc1N1CN(c2ccc(=O)[nH]c2Cl)C(=O)c2ccc(C(F)(F)F)cc21` [drawing 292, 3-(2-chloro-6-oxo-1,6-dihydropyridin-3-yl)-1-(4-fluoro-2-methylphenyl)-7-(trifluoromethyl)-2,3-dihydroquinazolin-4(1H)-one]: the IC50 is 794 nM.
Turning to `Cc1cc(F)ccc1N1CN(c2ccc(=O)[nH]c2C)C(=O)c2cc(Cl)ccc21` [drawing 293, 6-chloro-1-(4-fluoro-2-methylphenyl)-3-(2-methyl-6-oxo-1,6-dihydropyridin-3-yl)-2,3-dihydroquinazolin-4(1H)-one], the IC50 is 10 nM.
Same read-out and setting: with `Cc1[nH]c(=O)ccc1N1CN(c2ccc(F)cc2)c2ccccc2C1=O` [drawing 294, 1-(4-fluorophenyl)-3-(2-methyl-6-oxo-1,6-dihydropyridin-3-yl)-2,3-dihydroquinazolin-4(1H)-one] the figure was 5010 nM.
The same measure, in the same setting: next, `Cc1ccccc1N1CN(c2ccc(=O)[nH]c2C)C(=O)c2ccccc21` [drawing 295, 3-(2-methyl-6-oxo-1,6-dihydropyridin-3-yl)-1-(o-tolyl)-2,3-dihydroquinazolin-4(1H)-one]: 631 nM; `Cc1ccc2c(c1)C(=O)N(c1ccc(=O)[nH]c1C)CN2c1ccc(F)cc1C` [drawing 296, 1-(4-fluoro-2-methylphenyl)-6-methyl-3-(2-methyl-6-oxo-1,6-dihydropyridin-3-yl)-2,3-dihydroquinazolin-4(1H)-one]: 50.1 nM.
With `Cc1cc(F)ccc1N1CN(c2ccc(=O)[nH]c2C)C(=O)c2ccccc21` [drawing 297, 1-(4-fluoro-2-methylphenyl)-3-(2-methyl-6-oxo-1,6-dihydropyridin-3-yl)-2,3-dihydroquinazolin-4(1H)-one], the IC50 was 63.1 nM.
Same read-out and setting: next, `Cc1cc(F)ccc1N1CN(c2ccc(=O)[nH]c2C)C(=O)c2ccc(Br)cc21` [drawing 298, 7-bromo-1-(4-fluoro-2-methylphenyl)-3-(2-methyl-6-oxo-1,6-dihydropyridin-3-yl)-2,3-dihydroquinazolin-4(1H)-one]: 3.16 nM.
Still for that read-out and setting: with `Cc1cc(F)ccc1N1CN(c2ccc(=O)[nH]c2C)C(=O)c2ccc(C#N)cc21` [drawing 299, 1-(4-fluoro-2-methylphenyl)-3-(2-methyl-6-oxo-1,6-dihydropyridin-3-yl)-4-oxo-1,2,3,4-tetrahydroquinazoline-7-carbonitrile] the figure was 25.1 nM; with `Cc1cc(F)ccc1N1CN(c2ccc(=O)[nH]c2C#N)C(=O)c2ccc(C(F)(F)F)cc21` [drawing 300, 3-(1-(4-fluoro-2-methylphenyl)-4-oxo-7-(trifluoromethyl)-1,4-dihydroquinazolin-3(2H)-yl)-6-oxo-1,6-dihydropyridine-2-carbonitrile], 251 nM; with `Cc1[nH]c(=O)ccc1N1CN(c2ccc(F)cc2F)c2cc(C(F)(F)F)ccc2C1=O` [drawing 301, 1-(2,4-difluorophenyl)-3-(2-methyl-6-oxo-1,6-dihydropyridin-3-yl)-7-(trifluoromethyl)-2,3-dihydroquinazolin-4(1H)-one], 251 nM.
Same read-out and setting: next, `CCOc1ccc(N2CN(c3ccc(=O)[nH]c3C)C(=O)c3ccc(C(F)(F)F)cc32)cc1` [drawing 302, 1-(4-ethoxyphenyl)-3-(2-methyl-6-oxo-1,6-dihydropyridin-3-yl)-7-(trifluoromethyl)-2,3-dihydroquinazolin-4(1H)-one]: 398 nM; `Cc1cc(F)ccc1N1CN(c2ccc(=O)[nH]c2C)C(=O)c2ccc(OC(F)(F)F)cc21` [drawing 303, 1-(4-fluoro-2-methylphenyl)-3-(2-methyl-6-oxo-1,6-dihydropyridin-3-yl)-7-(trifluoromethoxy)-2,3-dihydroquinazolin-4(1H)-one]: 3.16 nM; `Cc1ccc2c(c1)N(c1ccc(F)cc1C)CN(c1ccc(=O)[nH]c1C)C2=O` [drawing 304, 1-(4-fluoro-2-methylphenyl)-7-methyl-3-(2-methyl-6-oxo-1,6-dihydropyridin-3-yl)-2,3-dihydroquinazolin-4(1H)-one]: 1.58 nM.
In the case of `Cc1cc(F)ccc1N1CN(c2ccc(=O)[nH]c2C)C(=O)c2cc(C(F)(F)F)ccc21` [drawing 305, 1-(4-fluoro-2-methylphenyl)-3-(2-methyl-6-oxo-1,6-dihydropyridine-3-yl)-6-(trifluoromethyl)-2,3-dihydroquinazolin-4(1H)-one], the IC50 is 12.6 nM.
In the case of `Cc1cc(F)ccc1N1CN(c2cnc(=O)[nH]c2)C(=O)c2ccc(C(F)(F)F)cc21` [drawing 306, 1-(4-fluoro-2-methylphenyl)-3-(2-oxo-1,2-dihydropyrimidin-5-yl)-7-(trifluoromethyl)-2,3-dihydroquinazolin-4(1H)-one], the IC50 is 501 nM.
Take `Cc1cc(F)ccc1N1CN(c2ccc(=O)[nH]n2)C(=O)c2ccc(C(F)(F)F)cc21` [drawing 307, 1-(4-fluoro-2-methylphenyl)-3-(6-oxo-1,6-dihydropyridazin-3-yl)-7-(trifluoromethyl)-2,3-dihydroquinazolin-4(1H)-one]: the IC50 is 2000 nM.
As to `Cc1cc(F)ccc1N1CN(c2ncc(=O)[nH]c2C)C(=O)c2ccc(C(F)(F)F)cc21` [drawing 308, 1-(4-fluoro-2-methylphenyl)-3-(3-methyl-5-oxo-4,5-dihydropyrazin-2-yl)-7-(trifluoromethyl)-2,3-dihydroquinazolin-4(1H)-one], the IC50 was 398 nM.

Staying with this test, now noted: Table 2; HEK293-Nav1.8, QPatch 48 HTX, half inactivation state voltage protocol (V1/2); single run or average of two or more runs; read-out: Nav1.8 pIC50 (converted).
Regarding `Cc1cc(F)ccc1N1CN(c2cc[nH]c(=O)c2)C(=O)c2ccc(C(F)(F)F)cc21` [drawing 309, 1-(4-fluoro-2-methylphenyl)-3-(2-oxo-1,2-dihydropyridin-4-yl)-7-(trifluoromethyl)-2,3-dihydroquinazolin-4(1H)-one], the IC50 is 398 nM.
